Experimental findings from patent US20240417410A1, “TRICYCLIC COMPOUNDS FOR THE TREATMENT OF CANCER” (Hoffmann-La Roche Inc., priority 2023, published 2024) are described below.

This series concerns NCI-H1373-luc intracranial tumors. The series can be described thus: Brain metastasis intracranial model, efficacy (bioluminescence). Type of series: in vivo. From the text: The purpose of this assay is to determine whether brain exposure of the compounds of current invention was sufficient to mediate regression of tumors in experimental Brain Metastases (BM) models.
NCI-H1373 cell line was purchased from the ATCC (CRL-5866). NCI-H1373-Luc cells were generated by WuXi AppTec. For generating NCI-H1373-Luc cell line, NCI-H1373 cells were transduced with GFP-Luc-puro lentivirus vector (HBLV-1014, HANBIO, carrying cDNA coding for firefly luciferase) and then selected with 1 μg/mL puromycin. All cells were authenticated by short tandem repeat fingerprinting, and periodically tested to be Mycoplasma free. H1373-luc cells were cultured in medium containing RPMI1640 (Thermo Fisher Scientific) plus 10% Fetal Bovine Serum (FBS, Thermo Fisher Scientific, 2.5 μg/mL puromycin and 1% Antibiotic-Antimycotic (Thermo Fisher Scientific), at 37° C. in an atmosphere of 5% CO2 in air. The medium was renewed every 2 to 3 days and tumor cells were routinely sub-cultured at a confluence of 80-90%. Cells growing in an exponential growth phase were harvested and counted for inoculation.
Murine studies were conducted at the WuXi AppTec and were performed in compliance with all applicable regulations and guidelines of the Institutional Animal Care and Use Committee (IACUC). Mice were maintained in a special pathogen-free environment and in individual ventilation cages, and food and water will be sterilized before use. 8 to 9 weeks female NU/NU nude mice (Charles River Lab.) were implanted intracarotid injection with 0.5×10^5 NCI-H1373-Luc cells in 100 μL serum-free media. When bioluminescence reached a mean of 1.28E+08 photons/second (range of 5.79E+07-2.685E+08 photons/second) at day 15 post inoculation, tumor-bearing mice were randomized into different groups with 4 mice in each group. The randomization date was denoted as treatment day 0. Afterwards, oral daily dosing of vehicle or Example 24 began and continued for 14 days. Baseline bioluminescent imaging (BLI) began 24 hours prior to initial dosing with vehicle or test articles, and additional imaging time points for all animals were measured twice a week by Xenogen machine (PerkinElmer IVIS Lumina II) between 0-14 days post grouping. […]
TGI (tumor growth inhibition) was calculated for each group using the formula: TGI (%)=[1−(Ti−T0)/(Vi−V0)]×100; Ti is the average tumor bioluminescence of a treatment group on a given day, T0 is the average tumor bioluminescence of the treatment group on the day of treatment start, Vi is the average tumor bioluminescence of the vehicle control group on the same day with Ti, and V0 is the average tumor bioluminescence of the vehicle group on the day of treatment start. […]

Where [1] appears, read: day 14, 30 mg/kg, PO, QD, NCI-H1373-luc intracranial.

As a reminder, the T/C is the result in the treated group divided by that in the control group, in per cent.

On to `CO[C@@H](C)c1ncc(N2CCN(C)CC2)cc1-c1c2c3cc(cc4c3n1CCC4)-c1csc(n1)C[C@H](NC(=O)[C@H]1[C@H](C)[C@@H]1C)C(=O)N1CCC[C@H](N1)C(=O)OCC(C)(C)C2` (atropisomer, axis not shown; (M)) [Example 24, (1r,2R,3S)-N-[(7S,13S)-(20M)-20-[2-[(1S)-1-methoxyethyl]-5-(4-methylpiperazin-1-yl)-3-pyridyl]-17,17-dimethyl-8,14-dioxo-15-oxa-4-thia-9,21,30,31-tetrazahexacyclo[23.3.1.1^2,5.1^9,13.0^19,27.0^21,26]hentriaconta-1 (28),2,5 (31), 19,25 (29),26-hexaen-7-yl]-2,3-dimethyl-cyclopropanecarboxamide], for which the “tolerability (overt toxicity, animal weight)” value (30 mg/kg once daily for 14 days, NCI-H1373-luc intracranial model) is recorded as “no sign of overt toxicity or animal weight loss”. Under setting [1], the ROI was 1.34 ± 0.75 ×10^7 photon/s, the T/C amounted to 0.52% and the TGI is reported as 104.68%.
